“Also recorded” adds a separate entry of the source.
Assays:
Han:SPRD rats [1] = test: BHB, citrate and combined BHB-citrate treatment in drinking water of Han:SPRD PKD rats, post-natal weeks 3-8; assay type: in vivo, rat; conditions: for dose dependence of benefit on PKD progression: varying concentrations, citrate particularly at the 120 mM dosage
Protocol: To investigate BHB, citrate, and combined BHB and citrate effects on PKD progression, Han:SPRD rats were treated with BHB or a combination of BHB and citrate from post-natal weeks 3-8 in the context of ad libitum feeding with normal, high-carbohydrate chow (NC). In the BHB treatments, BHB was administered as a sodium and potassium salt in the drinking water ad libitum at a dose equivalent to that recommended as a dietary supplement in BHB supplement drinks. In the citrate treatments, citrate was administered as a combination of tripotassium citrate and citric acid at a (0.82/1) ratio at a dose equivalent to that recommended utilized in citrate dietary supplements. Control cohorts received either normal water or water supplemented with the molar equivalents of salt provided in the BHB or BHB-citrate supplements (a mixture of NaCl/KCl). […]

Han:SPRD rats [2] = test: Oral BHB treatment in drinking water of juvenile Han:SPRD PKD rats, post-natal weeks 3-8; assay type: in vivo, rat
Protocol: Han:SPRD rats, a non-orthologous model of PKD with a mutation in Anks6 were placed on a time-restricted feeding (TRF) regime wherein TRF animals had access to food for an 8-h period within their 12-h dark cycle. Animals were treated for 5 weeks from post-natal weeks 3-8. […] Additionally, TRF-treated animals had increased levels of BHB and reduced blood glucose indicative of ketosis. Oral BHB Treatment Prevents Polycystic Disease Progression in Juvenile Rats. To investigate if BHB might affect PKD progression, Han:SPRD rats were treated with BHB from post-natal weeks 3-8 in the context of ad libitum feeding with normal, high-carbohydrate chow (NC). BHB was administered as a sodium and potassium salt in the drinking water ad libitum at a dose equivalent to that recommended as a dietary supplement in BHB supplement drinks. Control cohorts received either normal water or water supplemented with the molar equivalents of salt provided in the BHB supplement (a mixture of NaCl/KCl).

[3] = PKD rats, 5 weeks BHB in drinking water
[4] = PKD rats, 5 weeks BHB in drinking water, normal chow, vs water- and salt-treated controls

Row | Compound | dose dependence of benefit on PKD progression (Han:SPRD rats [1]) | effect on body weight (Han:SPRD rats [2]; 5 weeks BHB in drinking water) | effect on wild-type kidneys and other organs (Han:SPRD rats [2]; 5 weeks BHB in drinking water) | fibrosis (Han:SPRD rats [2]; [3]) | kidney function (assessed by creatinine) (Han:SPRD rats [2]; [3]) | myofibroblasts (Han:SPRD rats [2]; [3]) | proliferation (Han:SPRD rats [2]; [3]) | 2-kidney to body weight ratio (Han:SPRD rats [2]; [4]) | cystic area (Han:SPRD rats [2]; [4]) | kidneys of PKD animals at the gross and histological level (Han:SPRD rats [2]; after 5 weeks of treatment) | effect on body weight (Han:SPRD rats [1]; 5 weeks in drinking water) | effect on wild-type kidneys and other organs (Han:SPRD rats [1]; 5 weeks in drinking water) | 2-kidney to body weight ratio (Han:SPRD rats [1]; PKD rats, 5 weeks, vs water- and salt-treated controls (FIG. 8A)) | cystic area (Han:SPRD rats [1]; PKD rats, 5 weeks, vs water- and salt-treated controls (FIG. 8B)) | kidneys of PKD animals at the gross and histological level (Han:SPRD rats [1]; after 5 weeks of treatment)
1 | citrate | dose-dependent therapeutic effects |  |  |  |  |  |  |  |  |  |  |  |  |  | 
2 | CC(O)CC(=O)O (stereo not drawn) [BHB, beta-hydroxybutyric acid] | dose-dependent benefits | no effect | Neither wild-type kidneys nor other organs were affected | strong reduction | improved | almost complete elimination; also recorded: almost complete absence | inhibition | striking and unexpected reductions | striking and unexpected reductions | nearly indistinguishable from kidneys of wild-type animals | no effect | Neither wild-type kidneys nor other organs were affected | striking reductions | striking reductions | nearly indistinguishable from kidneys of wild-type animals

From patent US11013705B2, “Methods and compositions for supporting renal health” (The Regents of the University of California, priority 2019, dated 2021)
